US10179125B2, “Substituted pyridines as bromodomain inhibitors” (Zenith Epigenetics Ltd., priority 2014, dated 2019)

Assays:
hIL-6 = test: Inhibition of hIL-6 mRNA transcription in LPS-stimulated U937 cells; format: cell-based, Human; conditions: 1 h pretreatment, LPS 3 h; for IC50: Homo sapiens, U-937, PMA-differentiated U937 cells, read-out: IL-6 activity; for IL-6 activity: PMA-differentiated U937 cells
Procedure: Human leukemic monocyte lymphoma U937 cells (CRL-1593.2) were plated at a density of 3.2×10^4 cells per well in a 96-well plate in 100 μL RPMI-1640 containing 10% FBS and penicillin/streptomycin, and differentiated into macrophages for 3 days in 60 ng/mL PMA ([…]) at 37° C. in 5% CO2 prior to the addition of compound. The cells were pretreated for 1 h with increasing concentrations of test compound in 0.1% DMSO prior to stimulation with 1 ug/mL lipopolysaccharide from Escherichia coli. Triplicate wells were used for each concentration. The cells were incubated at 37° C., 5% CO2 for 3 h before the cells were harvested. At time of harvest, media was removed and cells were rinsed in 200 μL PBS. Cells were harvested using the mRNA Catcher PLUS kit according to manufacturer's instructions. The eluted mRNA was then used in a one-step quantitative real-time PCR reaction using components of the RNA UltraSense™ One-Step Kit (Life Technologies) together with Applied Biosystems TaqMan® primer-probes for hIL-6 and Cyclophilin. Real-time PCR plates were run on a ViiA™7 real time PCR machine (Applied Biosystems), data was analyzed, normalizing the Ct values for hIL-6 to an internal control, prior to determining the fold expression of each sample, relative to the control.

[1] = target: T1, Brd4 bromodomain 1 (BRD4(1)) (Homo sapiens, UniProt O60885); test: Inhibition of tetra-acetylated histone H4 binding to BET bromodomain (HTRF/FRET); conditions: His-tagged bromodomain 200 nM, biotinylated tetra-acetylated histone H4 peptide, 2 h room temperature
T1 construct: made in house; host or cells: E. coli BL21(DE3)
Procedure: Proteins were cloned and overexpressed with a N-terminal 6×His tag, then purified by nickel affinity followed by size exclusion chromatography. Briefly, E. coli BL21(DE3) cells were transformed with a recombinant expression vector encoding N-terminally Nickel affinity tagged bromodomains from Brd2, Brd3, Brd4. Cell cultures were incubated at 37° C. with shaking to the appropriate density and induced overnight with IPTG. The supernatant of lysed cells was loaded onto Ni-IDA column for purification, Eluted protein was pooled, concentrated and further purified by size exclusion chromatography. Fractions representing monomeric protein were pooled, concentrated, aliquoted, and frozen at −80° C. for use in subsequent experiments.
Binding of tetra-acetylated histone H4 and BET bromodomains was confirmed by a Homogenous Time Resolved Fluorescence Resonance Energy Transfer (HTRF®) method, N-terminally His-tagged bromodomains (200 nM) and biotinylated tetra-acetylated histone H4 peptide (25-50 nM, Millipore) were incubated in the presence of Europium Cryptate-labeled streptavidin (Cisbio Cat, #610SAKLB) and XL665-labeled monoclonal anti-His antibody (Cisbio Cat.1461HISXLB) in a white 96 well microtiter plate (Greiner). For inhibition assays, serially diluted test compound was added to these reactions in a 0.2% final concentration of DMSO. Duplicate wells were used for each concentration tested. Final buffer concentrations were 30 mM HEPES pH 7.4, 30 mM NaCl, 0.3 mM CHAPS, 20 mM phosphate pH 7.0, 320 mM KF, 0.08% BSA. After a 2 h incubation at room temperature, fluorescence was measured at 665 and 620 nm with a SynergyH4 plate reader (Biotek). The binding inhibitory activity was shown by a decrease in […] relative to 620 nm fluorescence. IC50 values were determined from a dose response curve.

cMYC = test: Inhibition of cMYC expression in MV4-11 cells (real-time PCR); format: cell-based, Human; conditions: 3 h, cMYC mRNA; for IC50: Homo sapiens, read-out: c-myc activity
Procedure: MV4-11 cells (CRL-9591) were plated at a density of 2.5×10^4 cells per well in 96 well U-bottom plates and treated with increasing concentrations of test compound or DMSO (0.1%) in IMDM media containing 10% FBS and penicillin/streptomycin, and incubated for 3 h at 37° C. Triplicate wells were used for each concentration. Cells were pelleted by centrifugation and harvested using the mRNA Catcher PLUS kit according to manufacturer's instructions. The eluted mRNA isolated was then used in a one-step quantitative real-time PCR reaction, using components of the RNA UltraSense™ One-Step Kit (Life Technologies) together with Applied Biosystems TaqMan® primer-probes for cMYC and Cyclophilin, Real-time PCR plates were run on a ViiA™7 real time PCR machine (Applied Biosystems), data was analyzed, normalizing the Ct values for cMYC to an internal control, prior to determining the fold expression of each sample, relative to the control.

Human AML MV-4-11 cells = test: Inhibition of cell proliferation in MV4-11 cells (CellTiter Aqueous One); format: cell-based; conditions: 72 h; for IC50: Homo sapiens
Procedure: MV4-11 cells (CRL-9591) were plated at a density of 5×10^4 cells per well in 96 well flat bottom plates and treated with increasing concentrations of test compound or DMSO (0.1%) in IMDM media containing 10% FBS and penicillin/streptomycin. Triplicate wells were used for each concentration and a well containing only media was used as a control. Plates were incubated at 37° C., 5% CO2 for 72 h before adding 20 μL of the CellTiter Aqueous One Solution (Promega) to each well and incubated at 37° C., 5% CO2 for an additional 3-4 h. The absorbance was read at 490 nm in a spectrophotometer and the percentage of cell titer relative to DMSO-treated cells was calculated after correcting for background by subtracting the blank well's signal. IC50 values were calculated using the GraphPad Prism software.

| SMILES | IC50 (hIL-6) [µM] | IC50 [1] [µM] | IC50 (cMYC) [µM] | IC50 (Human AML MV-4-11 cells) [µM] | IL-6 activity (hIL-6) | c-myc activity (cMYC) | Cell Proliferation activity (Human AML MV-4-11 cells) |
| --- | --- | --- | --- | --- | --- | --- | --- |
| COc1ncc(-c2c(C)noc2C)cc1NCc1cnoc1 [Example 42, 5-(3,5-dimethylisoxazol-4-yl)-N-(isoxazol-4-ylmethyl)-2-methoxypyridin-3-amine] | 0.3 to 3 | ≤ 0.3 | 0.3 to 3 | 3 to 30 | – | – | – |
| COc1ncc(-c2c(C)noc2C)cc1NCc1ccc2ccccc2c1 [Example 44, 5-(3,5-dimethylisoxazol-4-yl)-2-methoxy-N-(naphthalen-2-ylmethyl)pyridin-3-amine] | 3 to 30 | ≤ 0.3 | 3 to 30 | 3 to 30 | – | – | – |
| COc1ncc(-c2c(C)noc2C)cc1NCc1nc2ccccc2o1 [Example 46, N-(benzo[d]oxazol-2-ylmethyl)-5-(3,5-dimethylisoxazol-4-yl)-2-methoxypyridin-3-amine] | 0.3 to 3 | ≤ 0.3 | 0.3 to 3 | 3 to 30 | – | – | – |
| COc1ncc(-c2c(C)noc2C)cc1NCc1ccc2ccccc2n1 [Example 47, 5-(3,5-dimethylisoxazol-4-yl)-2-methoxy-N-(quinolin-2-ylmethyl)pyridin-3-amine] | – | ≤ 0.3 | – | – | Not Active | Not Active | Not Active |
| COc1ncc(-c2c(C)noc2C)cc1NCc1ccc(C#N)s1 [Example 50, 5-(((5-(3,5-dimethylisoxazol-4-yl)-2-methoxypyridin-3-yl)amino)methyl)thiophene-2-carbonitrile] | – | ≤ 0.3 | 0.3 to 3 | 3 to 30 | Not Active | – | – |
| Cc1noc(C)c1-c1cnc(Oc2ccccc2)c(NCc2ccccn2)c1 [Example 51, 5-(3,5-dimethylisoxazol-4-yl)-2-phenoxy-N-(pyridin-2-ylmethyl)pyridin-3-amine] | 0.3 to 3 | ≤ 0.3 | 0.3 to 3 | 3 to 30 | – | – | – |
| Cc1noc(C)c1-c1cnc(Oc2ccccc2)c(NCc2nccs2)c1 [Example 52, 5-(3,5-dimethylisoxazol-4-yl)-2-phenoxy-N-(thiazol-2-ylmethyl)pyridin-3-amine] | 0.3 to 3 | ≤ 0.3 | 3 to 30 | 3 to 30 | – | – | – |
| COc1ncc(-c2c(C)noc2C)cc1NCc1nc2ccccc2[nH]1 [Example 53, N-((1H-benzo[d]imidazol-2-yl)methyl)-5-(3,5-dimethylisoxazol-4-yl)-2-methoxypyridin-3-amine] | 3 to 30 | 0.3 to 3 | – | – | – | Not Active | Not Active |
| CNc1ncc(-c2c(C)noc2C)cc1NCc1ccc(C#N)s1 [Example 54, 5-(((5-(3,5-dimethylisoxazol-4-yl)-2-(methylamino)pyridin-3-yl)amino)methyl)thiophene-2-carbonitrile] | 0.3 to 3 | ≤ 0.3 | 0.3 to 3 | 3 to 30 | – | – | – |
| CNc1ncc(-c2c(C)noc2C)cc1NCc1ccccn1 [Example 55, 5-(3,5-dimethylisoxazol-4-yl)-N2-methyl-N3-(pyridin-2-ylmethyl)pyridine-2,3-diamine] | 0.3 to 3 | ≤ 0.3 | 0.3 to 3 | 0.3 to 3 | – | – | – |
| CNc1ncc(-c2c(C)noc2C)cc1NCc1nccs1 [Example 56, 5-(3,5-dimethylisoxazol-4-yl)-N2-methyl-N3-(thiazol-2-ylmethyl)pyridine-2,3-diamine] | 0.3 to 3 | ≤ 0.3 | 0.3 to 3 | 0.3 to 3 | – | – | – |
| COc1ncc(-c2c(C)noc2C)cc1NCc1nc2ccccc2s1 [Example 57, N-(benzo[d]thiazol-2-ylmethyl)-5-(3,5-dimethylisoxazol-4-yl)-2-methoxypyridin-3-amine] | 0.3 to 3 | ≤ 0.3 | 0.3 to 3 | 3 to 30 | – | – | – |
| COc1ncc(-c2c(C)noc2C)cc1NCc1cccc2ncccc12 [Example 58, 5-(3,5-dimethylisoxazol-4-yl)-2-methoxy-N-(quinolin-5-ylmethyl)pyridin-3-amine] | 0.3 to 3 | ≤ 0.3 | 0.3 to 3 | 0.3 to 3 | – | – | – |
| COc1ncc(-c2c(C)noc2C)cc1Nc1cccnc1C [Example 59, 5-(3,5-dimethylisoxazol-4-yl)-2-methoxy-N-(2-methylpyridin-3-yl)pyridin-3-amine] | 0.3 to 3 | ≤ 0.3 | 0.3 to 3 | 3 to 30 | – | – | – |
| COc1ncc(-c2c(C)noc2C)cc1Nc1c(C)nn(C)c1C [Example 60, 5-(3,5-dimethylisoxazol-4-yl)-2-methoxy-N-(1,3,5-trimethyl-1H-pyrazol-4-yl)pyridin-3-amine] | ≤ 0.3 | ≤ 0.3 | ≤ 0.3 | 0.3 to 3 | – | – | – |
| COc1ncc(-c2c(C)noc2C)cc1Nc1cc(C#N)ccc1C [Example 61, 3-((5-(3,5-dimethylisoxazol-4-yl)-2-methoxypyridin-3-yl)amino)-4-methylbenzonitrile] | 3 to 30 | ≤ 0.3 | – | – | – | Not Active | Not Active |
| COc1ncc(-c2c(C)noc2C)cc1Nc1cc(C(N)=O)ccc1C [Example 62, 3-((5-(3,5-dimethylisoxazol-4-yl)-2-methoxypyridin-3-yl)amino)-4-methylbenzamide] | 0.3 to 3 | ≤ 0.3 | 0.3 to 3 | 3 to 30 | – | – | – |
| COc1ncc(-c2c(C)noc2C)cc1Nc1cn(C)nc1C [Example 63, N-(1,3-dimethyl-1H-pyrazol-4-yl)-5-(3,5-dimethylisoxazol-4-yl)-2-methoxypyridin-3-amine] | 0.3 to 3 | ≤ 0.3 | 0.3 to 3 | 0.3 to 3 | – | – | – |
| CNc1ncc(-c2c(C)noc2C)cc1Nc1cc(C#N)ccc1C [Example 64, 3-((5-(3,5-dimethylisoxazol-4-yl)-2-(methylamino)pyridin-3-yl)amino)-4-methylbenzonitrile] | 0.3 to 3 | 0.3 to 3 | 0.3 to 3 | 3 to 30 | – | – | – |
| COc1ncc(-c2c(C)noc2C)cc1Oc1cc(C#N)ccc1C [Example 65, 3-((5-(3,5-dimethylisoxazol-4-yl)-2-methoxypyridin-3-yl)oxy)-4-methylbenzonitrile] | 0.3 to 3 | 0.3 to 3 | 3 to 30 | 3 to 30 | – | – | – |
| COc1ncc(-c2c(C)noc2C)cc1Oc1cccnc1C [Example 66, 4-(6-methoxy-5-((2-methylpyridin-3-yl)oxy)pyridin-3-yl)-3,5-dimethylisoxazole] | 0.3 to 3 | 0.3 to 3 | 3 to 30 | 3 to 30 | – | – | – |
